{"source": "a melting point compilation (Tetko et al.; mined from patent text by program, amines drawn as free bases though some values may be those of a salt)"}
{"units": {"melting point": "°C"}}
{"smiles": "CCOC(=O)C(N)C=CCP(=O)(O)O", "note": "(configuration not stated)", "melting point": "167 to 168"}
{"smiles": "CCN(Cc1cc(Br)ccc1OCc1ccccc1)c1ccc(-c2nnn[nH]2)cc1", "melting point": "206 to 208"}
{"smiles": "N#Cc1cn(-c2c(Cl)cc(C(F)(F)F)cc2Cl)nc1F", "melting point": "120 to 121"}
{"smiles": "O=C(c1ccc([N+](=O)[O-])cc1)N1Cc2ccc(C(=O)C(F)(F)F)n2Cc2ccccc21", "melting point": "169 to 170"}
{"smiles": "CCCCc1ncc(/C=C(\\Cc2cccs2)C(=O)O)n1Cc1ccc(OC)c(C)c1", "melting point": "140 to 141"}
{"smiles": "CCCOc1ccc(C(=O)CBr)cc1-c1nc2c(CCC)nn(C)c2c(=O)[nH]1", "melting point": "136 to 137"}
{"smiles": "N=C(Nc1ccccc1)Nc1ncccc1OCc1c(F)cccc1Cl", "melting point": "147 to 149"}
{"smiles": "O=C(CCCCCOc1ccccc1)c1ccccc1", "melting point": "53.5 to 54.5"}
{"smiles": "CCC(=O)N1c2ccccc2NC(=O)c2cscc21", "melting point": "222 to 224"}
{"smiles": "CCC(=O)NS(=O)(=O)c1ccc(C(=O)C=Cc2cc(-c3cc4ccccc4[nH]3)c(OC)cc2OC)cc1", "melting point": "223 to 225"}
{"smiles": "CNC1=NS(=O)N=C1NCCCNc1ncc(Br)cc1C", "note": "(configuration not stated)", "melting point": "211 to 212"}
{"smiles": "CN(C)c1ccc(C(=O)CCCN2CCC(=C(c3ccccc3)c3ccccc3)CC2)cc1", "melting point": "110 to 112"}
{"smiles": "C1=C(c2c[nH]c3ccccc23)CCN(CC2CCc3ccccc32)C1", "note": "(configuration not stated)", "melting point": "168 to 170"}
{"smiles": "O=C(CCC(=O)c1ccccc1)NC1CCCCC1", "melting point": "109 to 111"}
{"smiles": "Cc1c(Br)nc(Nc2ccc(C#N)cc2)c(=O)n1C", "melting point": "254 to 255"}
{"smiles": "CCON=C(CC)C1=C(OC(=O)c2ccc(Cl)cc2)CC(C)(C)CC1=O", "melting point": "60 to 62"}
{"smiles": "O=C(c1ccc(-c2ccncc2)cc1)N1CCN(S(=O)(=O)c2nc3ccc(Cl)cc3[nH]2)CC1", "melting point": "242 to 244"}
{"smiles": "CCOC(=O)c1csc(/C=C/c2cccc([N+](=O)[O-])c2)n1", "melting point": "151 to 153"}
{"smiles": "COC(=O)c1cccc2nc(SCCCN3CCCN(CC(=O)Nc4c(C(C)C)cccc4C(C)C)CC3)oc12", "melting point": "83 to 85"}
{"smiles": "CCOC(=O)CCCCCCCn1c(Cc2ccccc2)nc(-c2ccccc2)c1-c1ccccc1", "melting point": "82 to 83"}
{"smiles": "Cc1ccc(C)c2c(=O)oc(=O)[nH]c12", "melting point": "295 to 298"}
{"smiles": "CCC(=O)Nc1c(Cl)cc(Cl)c(-c2nsc(C(F)(F)F)c2Cl)c1Br", "melting point": 156}
{"smiles": "CCc1cccc2c1OC(C(F)(F)F)C(C(=O)O)=C2", "note": "(configuration not stated)", "melting point": "185 to 187"}
{"smiles": "CC1Oc2c(C#N)cc(F)cc2C=C1n1nc(C(F)(F)F)n(C)c1=S", "note": "(configuration not stated)", "melting point": 144}
{"smiles": "O=C(O)c1ccc2c(c1)Sc1ccccc1CC2O", "note": "(configuration not stated)", "melting point": "202 to 204"}
{"smiles": "N#Cc1ccc(-c2cccc(-c3cn4cc(C#N)ccc4n3)c2)cc1", "melting point": "290 to 292"}
{"smiles": "CN(C)CCNc1ccc(-c2nn(CC(=O)O)c3ncccc23)cc1", "melting point": "240 to 242"}
{"smiles": "CCCOc1ccccc1-c1nc2cc(N)c(N)cc2c(=O)[nH]1", "melting point": "195 to 197"}
{"smiles": "O=C(CN1C(=O)C2(COc3cc(Cl)ccc32)c2ccccc21)Nc1ccccc1F", "note": "(configuration not stated)", "melting point": "70 to 75"}
{"smiles": "C#CCOc1ccc2c(c1)c(-c1ccc(C(C)C)cc1)nc(=O)n2Cc1cccc([N+](=O)[O-])c1", "melting point": "167 to 168"}
{"smiles": "Nc1c(Cl)ccc2c1NCCC2=O", "melting point": "105 to 109"}
{"smiles": "CCC(CC)Nc1cc(-c2c(-c3cccc(C)c3)nc3cccnn23)ccn1", "melting point": "155 to 156"}
{"smiles": "COc1cccc(CNc2nccc(-c3cc(N4CCN(CCCN(C)C)CC4)c4cc(OC)ccc4c3)n2)c1", "melting point": "70 to 75"}
{"smiles": "COC(=O)c1cccc(Oc2cccc(-c3nn(C)c(=Nc4ccc(Cl)c(Cl)c4)s3)c2)c1", "melting point": "193 to 196"}
{"smiles": "CCNC1CN(c2cc3c(cc2F)c(=O)c(C(=O)O)cn3C2CC2)C1", "melting point": "220 to 224"}
{"smiles": "CCN(CC)C(=O)Nc1ccc(S(=O)(=O)N2C(=O)C(C)(c3cc(C(=O)NCc4cccnc4)ccc3Cl)c3cc(Cl)ccc32)c(OC)c1", "note": "(configuration not stated)", "melting point": 148}
{"smiles": "O=C(O)C(O)c1cccnc1", "note": "(configuration not stated)", "melting point": 140}
{"smiles": "CC(C)(C)C(O)C(CSc1ccc(Cl)cc1)n1cncn1", "note": "(configuration not stated)", "melting point": 84}
{"smiles": "Cc1cc2cccc(N=C3SC[C@@H]4Cc5ccccc5CN34)c2cn1", "melting point": 156}
{"smiles": "COc1cc(OC)nc(NC#N)n1", "melting point": 202}
{"smiles": "CCn1cc(C(=O)NCc2ccc(Cl)cc2)c(=O)c2cc(CN(C)C[C@@H](O)c3ccco3)sc21", "melting point": "123 to 127"}
{"smiles": "CCCn1cc2c(C3C(=O)Nc4ccc(Br)cc43)nc(NCC3CCCO3)nc2n1", "note": "(configuration not stated)", "melting point": "309 to 312"}
{"smiles": "O=C(Nc1cccc2c1C1CCCCN1C2=O)Nc1ncccc1Br", "note": "(configuration not stated)", "melting point": 220}
{"smiles": "CCNc1ccc(C(=O)CBr)cc1S(N)(=O)=O", "melting point": "156 to 157"}
{"smiles": "CCn1c2ccccc2c2cc(NC(=O)c3ccccc3C(F)(F)F)ccc21", "melting point": "206 to 207"}
{"smiles": "CNC(=O)ON=C1SCS(=O)CS1", "note": "(configuration not stated)", "melting point": "175 to 177"}
{"smiles": "CC(C)c1cccc(C(C)C)c1NC(=O)N(Cc1ccccc1)[C@H]1CC[C@@H](c2ccccc2)CC1", "melting point": "148 to 149"}
{"smiles": "C[C@H]1[C@H](c2ccccc2)N(C)C(=O)N1C(=O)NC1CCCCC1", "note": "(relative stereo)", "melting point": 108}
{"smiles": "CCCc1nn(-c2ccc(C(F)(F)F)cn2)cc1CCCOc1c(CC(=O)O)cnn1CC", "melting point": "125 to 126"}
{"smiles": "CCOC(=O)COC(=O)c1cc2c(cn1)[nH]c1ccccc12", "melting point": "165 to 168"}
{"smiles": "O=C1CNC(=O)N1Cc1ccccc1", "melting point": "139 to 140"}
{"smiles": "CC(=O)Nc1ccc(S(=O)c2ccccc2)cc1", "note": "(configuration not stated)", "melting point": "135 to 137"}
{"smiles": "COC(=O)c1cc(Cl)ccc1NS(=O)(=O)c1ccc(C)cc1", "melting point": "112 to 114"}
{"smiles": "COc1ccc([C@]2(C)CNC(=O)O2)cc1O", "melting point": 142}
{"smiles": "CCCc1c(OCCOc2ccc3c(=O)cc(-c4ccc(C(=O)OCC)cc4)oc3c2CCC)ccc(C(C)=O)c1O", "melting point": "167 to 168"}
{"smiles": "CC(C(=O)O)c1ccc(C(=O)c2ccc3ccccc3c2)cc1", "note": "(configuration not stated)", "melting point": 150}
{"smiles": "Nc1ncccc1-c1nc2cc(C3CCCC3)cnc2n1-c1ccc(CNC(=O)c2ccccc2)cc1", "melting point": "210 to 211"}
{"smiles": "c1ccc(CN(Cc2ccccc2)c2nccc(-c3ccc(-c4ccc(N(c5ccccc5)c5ccccc5)cc4)cc3)n2)cc1", "melting point": "164 to 165"}
{"smiles": "O=C(NCCCn1ncnn1)c1ccccc1NS(=O)(=O)c1cccc(C(F)(F)F)c1", "melting point": "67 to 69"}
{"smiles": "CN(C)Cc1cccc(OCCCNc2nc(-c3ccccc3)n[nH]2)c1", "melting point": "126 to 128"}
{"smiles": "O=C(N[C@H]1CCN(CCc2ccc(F)cc2)C1)N(C1CCCCC1)C1CCCCC1", "melting point": "97 to 98"}
{"smiles": "CNC(=O)Nc1cc(OC)ccc1Br", "melting point": "164 to 166"}
{"smiles": "O=C(O)c1c(Cl)c([N+](=O)[O-])cc([N+](=O)[O-])c1Nc1ccc(OCc2ccccc2)cc1", "melting point": "208 to 211"}
{"smiles": "CCON1CC1C(N)=O", "note": "(configuration not stated)", "melting point": "50 to 54"}
{"smiles": "Cc1ccc(S(=O)(=O)NC(Cc2ccccc2)C(=O)NCCCCC(C(=O)O)N(CC(C)C)S(=O)(=O)c2ccc(C)cc2)cc1", "note": "(configuration not stated)", "melting point": "301 to 306"}
{"smiles": "CC(C)(SC(F)(F)F)C(O)C(Oc1ccc(Cl)cc1)n1cncn1", "note": "(configuration not stated)", "melting point": "85 to 87"}
{"smiles": "COc1ccccc1C=CC(=O)C1=C(O)C(=C(C)Nc2ccccc2N)C(=O)OC1=O", "melting point": "148 to 150"}
{"smiles": "C=C1N(S(=O)(=O)c2ccc(C)cc2)C(=O)OC12CCN(Cc1ccccc1)CC2", "melting point": "157 to 158"}
{"smiles": "C=C(C(=O)NCc1ccccc1)c1ccccc1", "melting point": "84 to 86"}
{"smiles": "COC(=O)C=C(Nc1ccccc1C#N)C(=O)OC", "melting point": "116 to 118"}
{"smiles": "CC(C)OC(=O)c1cc2c(cn1)[nH]c1cccc(Cc3ccccc3Cl)c12", "melting point": "258 to 260"}
{"smiles": "CCOC(=O)c1ccc(NC(=O)C=C(c2ccccc2)c2ccc(C)cc2)cc1", "melting point": "122 to 124"}
{"smiles": "Cn1nc(-c2cc(C=O)c(Cl)cc2F)c(Cl)c1OC(F)F", "melting point": "95 to 98"}
{"smiles": "O=C(Nc1ccncc1)Nc1ccc(-c2nc(N3CCOCC3)c3nnn(C4CCOCC4)c3n2)cc1", "melting point": 332}
{"smiles": "O=S1(=O)C=CC(c2ccccc2)(c2ccccc2)CC1", "melting point": 166}
{"smiles": "S=[PH2]CCC(c1ccccc1)(c1ccccc1)c1ccccc1", "melting point": 88}
{"smiles": "CCOC(=O)/C(=N\\OCC=C(Cl)Cl)c1csc(N)n1", "melting point": "135 to 136"}
{"smiles": "COc1cc2c(cc1OC(C)C)-c1c(-c3cccs3)c3c(n1CC2)C(=O)N(C(C)C)CCNC3", "melting point": "242 to 243"}
{"smiles": "C=CCONC(O)(CC)C1C(=O)C=C(CC)OC1=O", "note": "(configuration not stated)", "melting point": "62.5 to 64"}
{"smiles": "COc1cc(C(C)C)c(Oc2cnc(N)nc2N)cc1-c1ncon1", "melting point": "135 to 138"}
{"smiles": "Cc1c(N2CC(C)[C@@](N)(CF)C2)c(F)cc2c(=O)c(C(=O)O)cn([C@@H]3C[C@@H]3F)c12", "note": "(some centres not stated)", "melting point": "200 to 203"}
{"smiles": "Cc1cccc(-c2[nH]c(C(C)C)nc2-c2ccc(F)c(-c3ccc(S(C)(=O)=O)nc3)c2)n1", "melting point": "102 to 105"}
{"smiles": "COC(=O)C1=C(C)Nc2c(c(=O)n(C)c(=O)n2C)C1c1cccc(Cl)c1", "note": "(configuration not stated)", "melting point": 230}
{"smiles": "O=C(NCCO)c1cccc(-c2nccc3cc(Cc4cccc(C(F)(F)F)c4)oc23)c1", "melting point": "168 to 169"}
{"smiles": "O=C(Nc1nccs1)C(CC1CCCC1)c1cccc(C(F)(F)F)c1", "note": "(configuration not stated)", "melting point": "134 to 136"}
{"smiles": "COc1ccccc1-n1c(-c2cc(-c3ccc(Cl)cc3)c(N3CCOCC3)s2)nc2ccccc2c1=O", "melting point": "216 to 217"}
{"smiles": "CCCCc1nc2c(N)nc3cccnc3c2n1CCNC(=O)C(CC(C)C)NC(=O)OC(C)(C)C", "note": "(configuration not stated)", "melting point": "184 to 185"}
{"smiles": "CC(=O)NC1(c2ccc(C(C)N3CCN(c4ccc(F)cc4)CC3)cc2)CC1", "note": "(configuration not stated)", "melting point": "149 to 150"}
{"smiles": "CCOc1ccc(S(=O)(=O)Cl)cc1C(=O)OC", "melting point": "99 to 100"}
{"smiles": "Cn1c(=O)ccc2cnc(N3CCC[C@H]3CO)nc21", "melting point": "143 to 144"}
{"smiles": "CCCCOc1ccc2cc(O)ccc2c1", "melting point": "100 to 102"}
{"smiles": "CCOc1ccc(C2=NC(=O)C(C)(C(C)C)N2)nc1", "note": "(configuration not stated)", "melting point": "143 to 145"}
{"smiles": "CCN(CC)C(=O)Nc1cc(-c2c(-c3cccc(C)c3)nc3cccnn23)ccn1", "melting point": "166 to 167"}
{"smiles": "COC(=O)c1cn(-c2ncnc3c2ccn3C)c2ncccc12", "melting point": 207}
{"smiles": "C=Cn1cc(C(N)=O)c([N+](=O)[O-])n1", "melting point": "150 to 152"}
{"smiles": "CCOC(=O)C1(Cc2ccc(OC)c(OC)c2)C(=O)NCC1c1ccc(OC)c(OC)c1", "note": "(configuration not stated)", "melting point": "146 to 149"}
{"smiles": "COC(=O)c1ccccc1C1=NC(C)(C(C)C)C(=O)N1O", "note": "(configuration not stated)", "melting point": "146 to 150"}
